This data set concerns embryo insect cells (trichiopusia ni). The experiment in a line: Toxicity test on embryo insect cells. The data set is classed as cell-based. An excerpt: Second, p-dodecanoyl-calix[4]arene has been tested on embryo insect cells (trichiopusia ni). Viability values of more than 80% have been found.

`CCCCCCCCCCCC(=O)c1cc2c(O)c(c1)Cc1cc(C(=O)CCCCCCCCCCC)cc(c1O)Cc1cc(C(=O)CCCCCCCCCCC)cc(c1O)Cc1cc(C(=O)CCCCCCCCCCC)cc(c1O)C2` [p-dodecanoyl-calix[4]arene]: the Viability entry is “more than 80%”.

The record behind these values is patent publication US7943175B2, “Calixarene based dispersible colloidal systems in the form of nanoparticles” (Nanoport S.A., priority 2001, dated 2011).
